These results are taken from PMC3222680 (PLoS ONE, 2011).

The target of one assay is T1, αWT β-αK24′A GlyR (Homo sapiens, UniProt P23415+P48167, A275I/A296P/F268Y/G272Q/K304A/L286I/M270L/M271I/P292M/P300G/S295A/T277S/V266M/V273M/V282I).
T1 construct: The α R218-Q219 and β R242-Q243 are also the joining sites for chimeras constructed between the ECD and TMD; expressed in transfected cells; host or cells: HEK293 (ATCC)
T1 sequence (P23415 29-449 isoform P23415-2): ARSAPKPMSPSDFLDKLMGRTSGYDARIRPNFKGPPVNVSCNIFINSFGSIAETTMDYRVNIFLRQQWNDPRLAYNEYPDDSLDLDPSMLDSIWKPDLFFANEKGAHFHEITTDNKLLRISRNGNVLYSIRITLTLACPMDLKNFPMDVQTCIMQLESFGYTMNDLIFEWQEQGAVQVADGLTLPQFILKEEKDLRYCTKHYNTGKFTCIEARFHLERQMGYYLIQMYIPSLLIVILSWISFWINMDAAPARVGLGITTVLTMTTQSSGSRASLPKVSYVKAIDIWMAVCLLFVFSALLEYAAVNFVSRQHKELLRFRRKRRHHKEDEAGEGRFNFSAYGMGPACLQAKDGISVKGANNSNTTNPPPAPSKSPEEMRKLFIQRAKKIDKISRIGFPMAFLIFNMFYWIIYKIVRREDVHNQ
T1 sequence (P48167+P23415 with tags, fused parts or gaps P48167:V266M/P48167:F268Y/P48167:M270L/P48167:M271I/P48167:G272Q/P48167:V273M/P48167:A275I/P48167:T277S/P48167:V282I/P48167:L286I/P48167:P292M/P48167:S295A/P48167:A296P/P48167:P300G/P23415:K304A): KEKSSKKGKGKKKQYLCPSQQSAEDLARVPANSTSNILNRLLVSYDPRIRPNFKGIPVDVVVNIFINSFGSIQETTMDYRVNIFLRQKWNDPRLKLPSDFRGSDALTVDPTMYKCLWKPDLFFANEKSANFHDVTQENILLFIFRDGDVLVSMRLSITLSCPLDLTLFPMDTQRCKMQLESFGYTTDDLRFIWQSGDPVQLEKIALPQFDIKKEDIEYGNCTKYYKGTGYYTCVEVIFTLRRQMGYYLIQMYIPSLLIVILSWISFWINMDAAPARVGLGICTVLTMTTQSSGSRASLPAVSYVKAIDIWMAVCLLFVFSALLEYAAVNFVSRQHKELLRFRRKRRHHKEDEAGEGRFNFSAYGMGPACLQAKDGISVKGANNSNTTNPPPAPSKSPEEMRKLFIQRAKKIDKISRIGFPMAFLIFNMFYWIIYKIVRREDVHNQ
It is filed as cell-based.

The target in another assay is αY27′A α-βWT GlyR (Homo sapiens, UniProt P23415+P48167, Y307A). How it is done: (§1) The human GlyR α1 and β subunit cDNAs were subcloned into the pcDNA3.1zeo+ (Invitrogen) or pGEMHE [44] plasmid vectors for expression in HEK293 cells or Xenopus oocytes, respectively. Site-directed mutagenesis and chimera construction were performed using the QuickChange (Stratagene, La Jolla, CA, USA) mutagenesis and multiple-template-based sequential PCR protocols, respectively.
(§2) The effects of the hyperekplexia-mimicking mutations, K24′A, V25′A and Y27′A, were examined on GlyRs expressed in HEK293 cells (ATCC). Details of the HEK293 cell culture, GlyR expression and electrophysiological recording of the HEK293 cells are described elsewhere. Briefly, HEK293 cells were maintained in DMEM supplemented with 10% fetal bovine serum. Cells were transfected using a calcium phosphate precipitation protocol. When co-transfecting the α1 together with the β or any other chimera subunits, their respective cDNAs were combined in a ratio of 1∶10. In addition, the pEGFP-N1 (Clontech) was co-transfected to facilitate identifying the transfected cells. […] Cells were treated with external Ringer's solution and internal CsCl solution [30]. Cells were voltage-clamped at −40 mV. When the heteromeric GlyRs were expressed, the picrotoxin sensitivity was tested to confirm that the majority of receptors are heteromers, [30].
(§3) Results are expressed as mean±standard error of the mean of three or more independent experiments. […] Statistical significance was determined using the Student's t-test.

The target of another assay is αY27′A βWT GlyR (Homo sapiens, UniProt P23415+P48167, Y307A). As to the method:
as §1, §2, §3

The next assay addresses αY27′A β-αWT GlyR (Homo sapiens, UniProt P23415+P48167, Y307A). As to the method:
as §1
For the β-α chimeras used for determining the effect of hyperekplexia-mimicking mutations on α1 β GlyR channel function, the Thr at the M2 6′ position was replaced by a Cys. […] Through such a modification, picrotoxin resistance was used to distinguish the heteromeric α1 β-α GlyR from the homomeric α1 GlyR when the α1 and β-α subunits were co-expressed.
The effects of the hyperekplexia-mimicking mutations, K24′A, V25′A and Y27′A, were examined on GlyRs expressed in HEK293 cells (ATCC). Details of the HEK293 cell culture, GlyR expression and electrophysiological recording of the HEK293 cells are described elsewhere. Briefly, HEK293 cells were maintained in DMEM supplemented with 10% fetal bovine serum. Cells were transfected using a calcium phosphate precipitation protocol. […]
as §3

Another assay deals with α19′C βWT GlyR (Homo sapiens, UniProt P23415+P48167, C137A/C313A/C69A/R299C). As to conditions: MTSR-labeled, oocytes. As to the method: as §1
(§4) For the VCF experiments, both GlyR α1 and β subunit cDNAs in the pGEMHE vector were mutated to substitute non-essential background cysteines with alanines, including α1C41A and βC115AC291A [46], [47].
(§5) VCF experiments were performed on GlyRs expressed in Xenopus laevis oocytes. Female Xenopus laevis frogs were purchased from Xenopus Express, France. Details of oocyte preparation, GlyR expression and VCF recording are described elsewhere. Briefly, the mMessage mMachine kit (Ambion, Austin, TX) was used to generate capped mRNA. The mRNA was injected into oocytes of the female Xenopus laevis frog with 10 ng (1 ng α1 and 9 ng β or any other chimeric subunits) per oocyte. After injection, the oocytes were incubated in ND96 solution [33] for 3–4 days at 18 °C before recording.
(§6) The sulfhydryl-reactive reagent, sulforhodamine methanethiosulfonate (MTSR, Toronto Research Chemicals, North York, Ontario, Canada), was used to label 19′C residues. […] The oocytes were then transferred to the recording chamber and perfused with ND96 solution. The current was recorded by the two-electrode voltage clamp configuration and the recording electrode was filled with 3 M KCl. Cells were voltage-clamped at −40 mV. The fluorescence was recorded using the PhotoMax 200 photodiode detection system (Dagan Corp., Minneapolis, MN).
as §3

Another assay concerns the target αWT β-α19′C GlyR (Homo sapiens, UniProt P23415+P48167, C137A/C69A/R299C). As to conditions: MTSR-labeled, oocytes. How it is done:
as §1, §4, §5, §6, §3

Assay [1] has as its system chimera α–β or chimera β–α transfected alone. Nature of the assay: Whole cell patch-clamp, chimeras transfected alone into HEK293 cells. As to conditions: glycine up to 100 mM, data not shown. It is filed as cell-based, human. As to the method: as §1, §2
(The patch-clamp technique gives a direct electrical read-out from membranes.)

[2] abbreviates: Hill coefficient of glycine-induced current.
The mark [3] stands for this setting: αWT β-αK24′A, HEK293, with glycine at EC50 of α1 homomer.

Chain of α19′C βWT GlyR (P23415 29-449 isoform P23415-2 C69A/R299C limits assumed): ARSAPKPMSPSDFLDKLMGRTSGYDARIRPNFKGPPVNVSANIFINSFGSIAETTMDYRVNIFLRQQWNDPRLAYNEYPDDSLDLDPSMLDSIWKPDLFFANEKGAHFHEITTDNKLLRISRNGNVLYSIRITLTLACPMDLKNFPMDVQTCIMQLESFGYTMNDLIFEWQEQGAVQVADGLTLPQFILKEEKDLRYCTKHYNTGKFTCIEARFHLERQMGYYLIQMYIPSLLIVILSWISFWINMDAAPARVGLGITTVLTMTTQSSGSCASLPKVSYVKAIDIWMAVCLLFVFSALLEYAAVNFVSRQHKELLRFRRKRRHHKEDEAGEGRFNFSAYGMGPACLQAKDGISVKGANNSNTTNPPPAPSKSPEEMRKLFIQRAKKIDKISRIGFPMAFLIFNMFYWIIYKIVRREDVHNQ
Chain of α19′C βWT GlyR (P48167 23-497 C137A/C313A): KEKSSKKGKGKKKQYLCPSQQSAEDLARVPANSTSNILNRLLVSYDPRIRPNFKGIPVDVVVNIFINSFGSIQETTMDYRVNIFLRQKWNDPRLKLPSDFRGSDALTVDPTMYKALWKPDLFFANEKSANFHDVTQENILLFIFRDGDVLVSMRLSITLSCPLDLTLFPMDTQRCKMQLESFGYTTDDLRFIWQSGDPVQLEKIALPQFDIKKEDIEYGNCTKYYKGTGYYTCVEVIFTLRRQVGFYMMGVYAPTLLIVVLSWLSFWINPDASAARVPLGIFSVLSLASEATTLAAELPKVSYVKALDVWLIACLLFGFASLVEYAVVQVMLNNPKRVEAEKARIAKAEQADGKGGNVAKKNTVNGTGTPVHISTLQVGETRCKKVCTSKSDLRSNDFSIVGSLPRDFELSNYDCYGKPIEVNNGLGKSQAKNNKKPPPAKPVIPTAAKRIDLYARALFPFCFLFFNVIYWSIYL
Chain of αWT β-α19′C GlyR (P23415 29-449 isoform P23415-2 C69A): as the sequence (P23415 29-449 isoform P23415-2 C69A/R299C limits assumed) above, with C271R counted along it
Chain of αWT β-α19′C GlyR (P48167+P23415 fused with the stated changes): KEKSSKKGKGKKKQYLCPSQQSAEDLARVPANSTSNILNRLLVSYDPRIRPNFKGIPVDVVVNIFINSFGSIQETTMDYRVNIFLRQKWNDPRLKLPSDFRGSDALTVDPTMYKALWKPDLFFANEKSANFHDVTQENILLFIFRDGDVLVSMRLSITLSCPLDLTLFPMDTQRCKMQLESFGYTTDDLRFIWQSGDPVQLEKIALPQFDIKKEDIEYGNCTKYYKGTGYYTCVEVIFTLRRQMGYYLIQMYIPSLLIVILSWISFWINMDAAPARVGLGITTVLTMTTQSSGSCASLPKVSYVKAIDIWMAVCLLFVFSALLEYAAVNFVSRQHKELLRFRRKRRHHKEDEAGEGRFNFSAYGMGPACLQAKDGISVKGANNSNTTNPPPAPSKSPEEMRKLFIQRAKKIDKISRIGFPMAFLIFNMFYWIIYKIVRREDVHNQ
Chain of αY27′A α-βWT GlyR (P23415 29-449 isoform P23415-2 Y307A): as the sequence (P23415 29-449 isoform P23415-2 C69A/R299C limits assumed) above, with A41C, C271R, Y279A counted along it
Chain of αY27′A α-βWT GlyR (P23415+P48167 fused with the stated changes): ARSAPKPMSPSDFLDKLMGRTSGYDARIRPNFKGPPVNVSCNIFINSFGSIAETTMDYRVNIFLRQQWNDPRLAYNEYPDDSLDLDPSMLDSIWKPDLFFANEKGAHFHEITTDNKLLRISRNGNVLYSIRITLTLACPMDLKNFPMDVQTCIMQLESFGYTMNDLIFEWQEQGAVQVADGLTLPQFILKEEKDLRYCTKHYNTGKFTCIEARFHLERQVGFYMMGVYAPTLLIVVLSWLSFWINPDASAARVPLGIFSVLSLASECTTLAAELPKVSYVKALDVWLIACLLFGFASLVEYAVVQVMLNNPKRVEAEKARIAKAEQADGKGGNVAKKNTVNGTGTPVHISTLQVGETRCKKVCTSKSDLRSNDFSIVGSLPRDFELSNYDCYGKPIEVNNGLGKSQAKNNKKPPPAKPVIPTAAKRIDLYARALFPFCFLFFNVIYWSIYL
Chain of αY27′A βWT GlyR (P23415 29-449 isoform P23415-2 Y307A limits assumed): as the sequence (P23415 29-449 isoform P23415-2 C69A/R299C limits assumed) above, with A41C, C271R, Y279A counted along it
Chain of αY27′A βWT GlyR (P48167 23-497): as the sequence (P48167 23-497 C137A/C313A) above, with A115C, A291C counted along it
Chain of αY27′A β-αWT GlyR (P23415 29-449 isoform P23415-2 Y307A): as the sequence (P23415 29-449 isoform P23415-2 C69A/R299C limits assumed) above, with A41C, C271R, Y279A counted along it
Chain of αY27′A β-αWT GlyR (P48167+P23415 fused with the stated changes): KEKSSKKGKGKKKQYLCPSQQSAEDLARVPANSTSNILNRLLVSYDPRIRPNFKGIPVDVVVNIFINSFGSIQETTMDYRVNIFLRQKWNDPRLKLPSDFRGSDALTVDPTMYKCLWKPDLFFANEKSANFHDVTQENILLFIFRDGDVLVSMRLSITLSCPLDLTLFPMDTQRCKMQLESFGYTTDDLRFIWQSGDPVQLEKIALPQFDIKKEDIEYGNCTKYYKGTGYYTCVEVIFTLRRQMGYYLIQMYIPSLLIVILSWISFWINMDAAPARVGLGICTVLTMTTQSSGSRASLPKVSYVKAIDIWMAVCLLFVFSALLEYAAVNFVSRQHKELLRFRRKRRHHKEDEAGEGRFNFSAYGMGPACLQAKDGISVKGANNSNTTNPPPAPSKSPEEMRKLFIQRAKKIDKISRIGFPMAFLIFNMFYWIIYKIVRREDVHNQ

In the case of `NCC(=O)O` [glycine], the Imax was determined as 5.9±1.7 nA at αWT β-αK24′A GlyR, 5.7±1.3 nA at αY27′A α-βWT GlyR (glycine-induced current), 2.0±1.0 nA on αY27′A βWT GlyR (glycine-induced current) and 1.3±0.3 nA at αY27′A β-αWT GlyR (glycine-induced current). Moreover, the nH on αWT β-αK24′A GlyR turned out to be 1.5±0.3; at αY27′A α-βWT GlyR (setting [2]), 0.78±0.03; on αY27′A βWT GlyR (setting [2]) it was 1.1±0.0; on αY27′A β-αWT GlyR (setting [2]), 1.0±0.1. The “Current Imax” value is 3.51±0.24 µA at α19′C βWT GlyR and 3.19±0.08 µA on αWT β-α19′C GlyR. Besides, the entries for the “Current nH” value on α19′C βWT GlyR and on αWT β-α19′C GlyR were 1.20±0.16 and 2.26±0.11, respectively. Moreover, the “Fluorescence Fmax” value at α19′C βWT GlyR was found to be 9.42±0.53%; on αWT β-α19′C GlyR, 3.86±0.37%. The “Fluorescence nH” value on α19′C βWT GlyR was 0.97±0.04; at αWT β-α19′C GlyR it was 1.15±0.05. For the same compound, the “current upon application of glycine” value in assay [1] was “neither chimera, when transfected alone into HEK293 cells, induced any current”.
Regarding picrotoxin [PTX], on αWT β-αK24′A GlyR (setting [3]), the “10uM PTX inhibition (%)” value amounted to 12.0±3.0% and the “100uM PTX inhibition (%)” value came to 31±3%.
